ChEMBL document CHEMBL4715897, “A new 1-nitro-9-aminoacridine derivative targeting yeast topoisomerase II able to overcome fluconazole-resistance” (2021)
Converted amounts (≈) assume the structure as drawn. The source made the active and inactive calls. No cut-off for these calls is given here.

Experiments:
Saccharomyces cerevisiae [1] = experiment: Antifungal activity against Saccharomyces cerevisiae ATCC 9763 assessed as reduction in microbial growth; format: functional
[2] = Ratio of MFC for fungicidal activity against Saccharomyces cerevisiae ATCC 9763 to MIC for antifungal activity against Saccharomyces cerevisiae ATCC 9763; format: functional
Candida parapsilosis [3] = experiment: Antifungal activity against Candida parapsilosis ATCC 22019 assessed as reduction in microbial growth; format: functional; details: Lodderomyces parapsilosis
Candida albicans [4] = experiment: Antifungal activity against Candida albicans ATCC 10231 assessed as reduction in microbial growth; format: functional
Nakaseomyces glabratus [5] = experiment: Antifungal activity against Candida glabrata ATCC 90030 assessed as reduction in microbial growth; format: functional
Saccharomyces cerevisiae [6] = experiment: Fungicidal activity against Saccharomyces cerevisiae ATCC 9763; format: functional
Pichia kudriavzevii [7] = experiment: Antifungal activity against Candida krusei ATCC 6258 assessed as reduction in microbial growth; format: functional
Saccharomyces cerevisiae [8] = experiment: Inhibition of Saccharomyces cerevisiae DNA topoisomerase 2 assessed as decrease in relaxation of supercoiled DNA using supercoiled pBR322 plasmid DNA at 1 to 200 uM gel electrophoresis method; details: dose 1-200 µM
Candida albicans [9] = experiment: Fungicidal activity against Candida albicans ATCC 10231; format: functional
Candida albicans [10] = experiment: Antifungal activity against fluconazole-resistant Candida albicans F5 assessed as reduction in microbial growth; format: functional
Candida albicans [11] = experiment: Antibiofilm activity against Candida albicans ATCC 10231 at concentration of 0.25 MIC by XTT assay; format: functional, organism-based
Nakaseomyces glabratus [12] = experiment: Fungicidal activity against Candida glabrata DSM 11226; format: functional
Pichia kudriavzevii [13] = experiment: Fungicidal activity against Candida krusei DSM 6128; format: functional
Candida albicans [14] = experiment: Antifungal activity against fluconazole-resistant Candida albicans Gu5 assessed as reduction in microbial growth; format: functional
Candida albicans [15] = experiment: Antifungal activity against fluconazole-sensitive Candida albicans B3 assessed as reduction in microbial growth; format: functional
Candida albicans [16] = experiment: Antifungal activity against fluconazole-sensitive Candida albicans F2 assessed as reduction in microbial growth; format: functional
Candida albicans [17] = experiment: Antifungal activity against fluconazole-resistant Candida albicans B4 assessed as reduction in microbial growth; format: functional
Candida albicans [18] = experiment: Antifungal activity against fluconazole-sensitive Candida albicans Gu4 assessed as reduction in microbial growth; format: functional
Candida parapsilosis [19] = experiment: Fungicidal activity against Candida parapsilosis DSM 5784; format: functional; details: Lodderomyces parapsilosis
Saccharomyces cerevisiae [20] = experiment: Inhibition of Saccharomyces cerevisiae DNA topoisomerase 2 assessed as decrease in relaxation of supercoiled DNA using supercoiled pBR322 plasmid DNA at 100 to 150 uM gel electrophoresis method; details: dose 100-150 µM
Candida albicans [21] = experiment: Growth inhibition of Candida albicans ATCC 10231 assessed as reduction in yeast to mycelium formation by measuring reduction in hyphal growth at 0.25 MIC after 3 hrs by light microscopic method relative to control; format: functional
Candida albicans [22] = experiment: Growth inhibition of Candida albicans ATCC 10231 assessed as reduction in yeast to mycelium formation by measuring reduction in hyphal growth at concentration of 0.25 MIC after 3 hrs in G1cNAc medium by light microscopic method relative to control; format: functional, organism-based

Row | Structure (SMILES) | MIC90 (Saccharomyces cerevisiae [1]) | Ratio [2] | MIC90 (Candida parapsilosis [3]) | MIC90 (Candida albicans [4]) | MIC90 (Nakaseomyces glabratus [5]) | MFC (Saccharomyces cerevisiae [6]) | MIC90 (Pichia kudriavzevii [7]) | MIC90 (Candida albicans [10]) | MIC90 (Candida albicans [14]) | MIC90 (Candida albicans [15]) | MIC90 (Candida albicans [16]) | MIC90 (Candida albicans [17]) | MIC90 (Candida albicans [18]) | further results
1 | Cc1ccc([N+](=O)[O-])c2c(NCCCN(C)CCCNc3c4ccccc4nc4c(C)ccc([N+](=O)[O-])c34)c3ccccc3nc12 | 8 µg/mL | >=1 | > 16 µg/mL | > 16 µg/mL | > 16 µg/mL | 8 µg/mL (≈ 13 µM) | > 16 µg/mL | – | – | – | – | – | – | –
2 | Nc1cccc2nc3ccccc3c(NCCO)c12 | > 64 µg/mL | – | > 64 µg/mL | > 64 µg/mL | > 64 µg/mL | – | > 64 µg/mL | – | – | – | – | – | – | –
3 | Cc1ccc([N+](=O)[O-])c2c(NCCOC(=O)[C@@H](N)CCCCN)c3ccccc3nc12 | 1 µg/mL | >=1 | 64 µg/mL | 4 µg/mL | 32 µg/mL | 2 µg/mL (≈ 4.7 µM) | 16 µg/mL | > 64 µg/mL | > 64 µg/mL | 16 µg/mL | 8 µg/mL | > 64 µg/mL | 8 µg/mL | inhibition (Saccharomyces cerevisiae [8]): inactive; MFC (Candida albicans [9]): 16 µg/mL (≈ 37.6 µM); Activity (Candida albicans [11]): inactive; MFC (Nakaseomyces glabratus [12]): 64 µg/mL (≈ 150 µM); MFC (Pichia kudriavzevii [13]): 32 µg/mL (≈ 75.2 µM)
4 | NCCCC[C@H](N)C(=O)OCCNc1c2ccccc2nc2cccc([N+](=O)[O-])c12 | 0.5 µg/mL | >=1 | 32 µg/mL | 4 µg/mL | 16 µg/mL | 1 µg/mL (≈ 2.43 µM) | 16 µg/mL | > 64 µg/mL | > 64 µg/mL | 4 µg/mL | 4 µg/mL | > 64 µg/mL | 4 µg/mL | inhibition (Saccharomyces cerevisiae [8]): inactive; MFC (Candida albicans [9]): 16 µg/mL (≈ 38.9 µM); Activity (Candida albicans [11]): Active; MFC (Nakaseomyces glabratus [12]): 64 µg/mL (≈ 156 µM); MFC (Pichia kudriavzevii [13]): 64 µg/mL (≈ 156 µM); MFC (Candida parapsilosis [19]): 128 µg/mL (≈ 311 µM)
5 | OC(Cn1cncn1)(Cn1cncn1)c1ccc(F)cc1F [FLUCONAZOLE] | – | – | – | 8 µg/mL | – | – | – | > 64 µg/mL | > 64 µg/mL | 1 µg/mL | 8 µg/mL | 16 µg/mL | 4 µg/mL | –
6 | CN(CCCNc1c2ccccc2nc2cccc([N+](=O)[O-])c12)CCCNc1c2ccccc2nc2cccc([N+](=O)[O-])c12 | 4 µg/mL | >=1 | > 16 µg/mL | > 16 µg/mL | > 16 µg/mL | 4 µg/mL (≈ 6.78 µM) | > 16 µg/mL | – | – | – | – | – | – | –
7 | Cc1ccc([N+](=O)[O-])c2c(NCCNCCNCCNc3c4ccccc4nc4c(C)ccc([N+](=O)[O-])c34)c3ccccc3nc12 | 32 µg/mL | – | > 32 µg/mL | > 32 µg/mL | > 32 µg/mL | – | > 32 µg/mL | – | – | – | – | – | – | –
8 | O=C(CCCCC(=O)OCCNc1c2ccccc2nc2cccc([N+](=O)[O-])c12)OCCNc1c2ccccc2nc2cccc([N+](=O)[O-])c12 | > 16 µg/mL | – | > 16 µg/mL | > 16 µg/mL | > 16 µg/mL | – | > 16 µg/mL | – | – | – | – | – | – | –
9 | Cc1ccc(N)c2c(NCCO)c3ccccc3nc12 | 64 µg/mL | – | 64 µg/mL | > 64 µg/mL | 64 µg/mL | – | 64 µg/mL | – | – | – | – | – | – | –
10 | COc1cc(NS(C)(=O)=O)ccc1Nc1c2ccccc2nc2ccccc12 | – | – | – | – | – | – | – | – | – | – | – | – | – | inhibition (Saccharomyces cerevisiae [20]): Active
11 | Cc1ccc([N+](=O)[O-])c2c(NCCOC(=O)CCCCC(=O)OCCNc3c4ccccc4nc4c(C)ccc([N+](=O)[O-])c34)c3ccccc3nc12 | > 32 µg/mL | – | > 32 µg/mL | > 32 µg/mL | > 32 µg/mL | – | > 32 µg/mL | – | – | – | – | – | – | –
12 | Cc1ccc([N+](=O)[O-])c2c(NCCCNC(=O)[C@@H](N)CCCCN)c3ccccc3nc12 | 32 µg/mL | >=1 | > 64 µg/mL | 32 µg/mL | > 64 µg/mL | 32 µg/mL (≈ 73 µM) | 64 µg/mL | > 64 µg/mL | > 64 µg/mL | > 64 µg/mL | > 64 µg/mL | > 64 µg/mL | > 64 µg/mL | inhibition (Saccharomyces cerevisiae [8]): Active; growth inhibition (GI) (Candida albicans [21]): 100%; growth inhibition (GI) (Candida albicans [22]): inactive
